The values that follow come from patent publication US20250177392A1, “BROAD SPECTRUM INHIBITORS OF CYTOMEGALOVIRUS” (MICROBIOTIX, INC., priority 2022, published 2025).

Data set [1] has as its system NHDF cells. The experiment in a line: Cell number by Hoechst stain (cell proliferation). The conditions noted are these: up to 50 μM, 6 day period; cycloheximide 50 μg/mL. It counts as cell-based, human. As to the method:
(§1) Fibroblasts were treated with increasing concentrations of MBX-4992 and MBXC-4336 for up to 6 days and cell number was measured periodically using Hoechst stain to quantify cell proliferation (A and B). Cyclohexamide (CHX) and DMSO (−) were used as positive and negative controls for cytotoxicity respectively. Cell cytostaticity (C and D) was assessed using ATP-based CellTiter Glo luciferase assay following extended incubation with increasing concentrations of MBX-4992 and MBXC-4336 for 1 or 6 days. Relative light units (RLU) were measured following cell lysis and normalized to DMSO treated cells for each time point.
(§2) The CellTiter Glo Luminescent Assay (Promega Inc, Madison, WI) was performed according to the manufacturer's instruction. NHDF cells (10^4) were plated in a 96-well plate overnight and treated with MBX-4992 or MXC-4336 ([…]) in triplicate for up to 6 days. Cyclohexamide (50 μg/mL) was used as a control. CellTiter Glo substrate was added in a 1:1 ratio with media and CellTiter-Glo reagent followed by the analysis of luciferase activity (relative light units, RLU) using a BioTek Synergy H1 microplate reader. In parallel, an identical plate was labelled with Hoescht reagent (25 μg/mL) to quantify the cell number using a Celigo Cytometer.
(§3) Next, the cytostaticity and cytotoxicity of treatment with MBX-4992 and MBXC-4336 was analyzed. […]

Data set [2] has as its system NHDF cells. In words: CellTiter Glo ATP luciferase assay. The following applies: 0-50 μM, 1 or 6 days; cycloheximide 50 μg/mL. It counts as cell-based, human. As for the experimental part:
as §1, §2, §3
For orientation: ATP-based viability assays read luminescence as a measure of living cells.

Data set [3] has as its system AD169^R (IE1 expression). The experiment in a line: Western blot (immunoblot) of IE1 expression in AD169^R-infected cells. The format is cell-based, Human cytomegalovirus. The conditions noted are these: NHDF cells, 24 hpi; MBX-4992 1-10 μM, ganciclovir 5 μM, convallotoxin 0.01 μM. As to the method: The molecular weight markers and respective proteins are indicated.
FIGS. 12A and B are Western Blot assays showing that MBXC-4336 limits expression of IE1 in fibroblasts and epithelial cells. Total cell lysates from AD169^R-infected (MOI 0.2) NHDF (A) and ARPE-19 (B) cells pre-treated with DMSO, MBX-4336 (0, 1, 5, 10, or 20 μM), or heparin (50 μg/mL) collected at 48 hpi were subjected to Western blot analysis using a rabbit anti-IE-1 antibody (lanes 1-7) and an anti-GAPDH antibody (lanes 8-14) as a loading control. The molecular weight markers and respective proteins are indicated.
Total cell lysates from virus infected NHDF cells treated with compounds were created through SDS-lysis (10^4/100 uL of 1% SDS) of at least three rounds of heating at 95° C. for 3 min and vigorous agitation. The total cell lysates were resolved using an SDS-polyacrylamide gel (12.5%), transferred to a PVDF membrane using a semi-dry apparatus. The membrane was then incubated with 1% BSA/PBS for 1 hr at room temperature followed by incubation with anti-IE1 and anti-GAPDH. Finally, the respective secondary antibody conjugated with HRP was incubated with membrane followed by detection using ECL reagents (Millipore).
Next, inhibition of the expression of IE1 in AD169^R-infected cells treated with MBX-4992 was examined by immunoblot analysis (FIG. 4E). […] Collectively, these findings further indicate that MBX-4992 effectively prevents the expression of the immediate-early genes during a CMV infection.

Data set [4] relates to HCMV AD169. The experiment in a line: Herpes virus panel neutralization, HCMV AD169. It counts as cell-based, Human cytomegalovirus. The following applies: Human betaherpesvirus 5; HCMV AD169; read-out: IC50. As for the experimental part:
(§4) To determine the specificity of MBX-4992, additional neutralization experiments were conducted using a panel of herpes viruses performed in the presence of MBX-4992. […] Collectively, the antiviral activity of MBX-4992 is equivalent to that of GCV indicating specific inhibition of CMV replication.

The subject of data set [5] is HCMV GDGr K17 (GCV^R). In words: Herpes virus panel neutralization, GCV-resistant HCMV. The following applies: Human betaherpesvirus 5. It counts as cell-based, Human cytomegalovirus. As for the experimental part: as §4
Data set [6] has as its system MCMV Smith. The experiment in a line: Herpes virus panel neutralization, MCMV. It counts as cell-based, Murine cytomegalovirus. The following applies: Murid betaherpesvirus 1; MCMV Smith; read-out: IC50. As for the experimental part: as §4
Data set [7] relates to AD169^R CMV virus. The experiment in a line: Plaque reduction (dissemination) assay, prophylactic treatment. The conditions noted are these: 2.5 μM, 10 dpi. The format is cell-based, Human cytomegalovirus. As to the method: FIG. 8A-H are fluorescence images (A & B) and graphs showing that NAPA compounds MBX-4992 and MBXC-4336 work in both prophylactic and therapeutic settings to inhibit HCMV infection. ARPE-19 cells (A to D) and NHDF cells (E and F) treated with increasing concentrations (0, 1, 5, 20, and 50 μM) of MBX-4992, MBXC-4336, or ganciclovir (2.5 μM) were infected with AD169^R (MOI 0.025) and analyzed for viral plaques of >5,000 μm^2 (C and E) and >10,000 μm^2 (D and F) based on GFP fluorescence. The representative images of plaques from AD169^R-infected ARPE-19 cells treated MBX-4992, MBXC-4336, ganciclovir are shown (A and B). MBX-4992, MBXC-4336 (G and H), and ganciclovir treatment at 48 hpi of AD169^R-infected ARPE-19 cells (MOI 0.025) were analyzed for virus plaques >5,000 μm^2 and >10,000 μm^2 at 10 dpi. The normalized plaque number was designated to be 100 based on plaques from DMSO treated cells. Statistical tests were performed using ordinary one-way ANOVA with multiple comparisons to DMSO treated cells as a control and a Dunnett's post-test; *, p<0.05; **, p<0.01; ***, p<0.001; ****, p<0.0001.
For the prophylactic treatment analysis, the plaque assay was performed on ARPE-19 and NHDF cells (4×10^4) in a 24-well plate. The cells were pretreated for 1 hour with either MBX-4992 or MBXC-4336 (1-50 μM), DMSO, or ganciclovir (2.5 μM) and followed by virus infection with AD169^R. Following a 2-hour incubation at 37° C., the inoculum was removed and cells were overlaid with 1% low melt sea agarose. Upon solidification of the agarose, MBX-4992, MBXC-4336, DMSO, or ganciclovir in media was added at the indicated concentration. The drugs were replaced every 3 days. The cells were examined using Brightfield and GFP fluorescence to quantify the number and size of virus plaques using a Celigo Cytometer at 10 dpi.
To address whether NAPA compounds can limit virus dissemination in epithelial cells, we analyzed the inhibitory properties of MBX-4992 and MBXC-4336 using a plaque reduction assay by designating a cluster of virus infected cells as a virus plaque (Parsons et al., Antivir. Res., 193:105124 (2021)) The results are shown in FIG. 8A-H.
To evaluate the prophylactic function of the NAPA compounds, ARPE-19 cells and NHDF cells treated with DMSO, MBX-4992, MBXC-4336 (0-50 μM), or ganciclovir (2.5 μM) were infected with AD169^R CMV virus and analyzed for virus plaques at 10 dpi based on GFP fluorescence (FIG. 8A-F). A cluster of virus infected cells was designated a viral plaque based on an average cluster area of 5,000 μm^2 or 10,000 μm^2 (FIG. 8A-B) using a Celigo cytometer.

Data set [8] relates to TB40/E. In words: Plaque assay, MBX-4992 and ganciclovir alone and in combination. The format is cell-based, Human cytomegalovirus. The conditions noted are these: ARPE-19 and NHDF cells, 10 dpi; MBX-4992 1-20 μM, ganciclovir 2.5 μM.
Procedure: At 10 day post-infection, representative whole well images of plaques >10,000 μm^2 (A and B) were quantified based on GFP fluorescence intensity and calculated relative to DMSO controls (C and D). Statistical tests were performed using ordinary one-way ANOVA with multiple comparisons to DMSO treated cells as a control and a Dunnett's post-test. *, p<0.05; **, p<0.01; ***, p<0.001; ****, p<0.0001.
At 10 days post-infection, representative whole well images of plaques >10,000 μm^2 (A and B) were quantified based on GFP fluorescence intensity and calculated relative to DMSO controls (C and D).
The test system of data set [9] is AD169^R. The experiment in a line: Virus pre-incubation / washout study. The conditions noted are these: virus pre-incubated, compound washed out; MBX-4992 10 μM, heparin 50 μg/ml. It counts as cell-based, Human cytomegalovirus. As for the experimental part:
(B) Based on the schematic, AD169^R (MOI 0.2) was pre-incubated with DMSO, MBX-4992, or heparin for one hour before being added to NHDF cells. Virus/compound mix was washed out after 30 minutes as indicated and either unchanged or replaced with media containing DMSO, MBX-4992, or heparin. Virus infection was quantified at 24 hpi GFP fluorescence. Percent infection was normalized to untreated cells.
NHDF cells (10^4) plated overnight in a 96-well plate were incubated at 4° C. for 30 minutes with AD169^R CMV virus pretreated with MBX-4992 (10 μM), Heparin (50 μg/mL) or DMSO for 1 hour at room temperature (in triplicate). For 2/3rd of the samples, media was aspirated and half of the wells received DMSO media, regardless of which drug the virus was exposed to, or MBX-4992 (10 μM), or Heparin (50 μg/mL) overnight. At 18 hpi, the cells were fixed with 4% paraformaldehyde, stained with a rabbit anti-IE1 antibody followed by an anti-rabbit Alexa 647, and analyzed using the Celigo cytometer. The DMSO condition that was not aspirated post binding was set as 100% infection.
To further characterize the mechanism of action, pre-incubation/washout studies were performed using AD169^R and MBX-4992. […] At 18 hpi, cells were immunostained with an anti-IE1 antibody as a readout for infection and quantified using a Celigo cytometer. […]

Data set [10] relates to AD169^R. The experiment in a line: Cells pre-incubation / washout study. The format is cell-based, Human cytomegalovirus. The following applies: cells pre-treated; drugs not removed or added back to washed-out cells. As for the experimental part: (C) NHDF cells were pre-incubated with DMSO, MBX-4992 or heparin prior to virus addition. After addition of AD169^R (MOI 0.2) for 30 min, media was either unchanged or replaced with media containing DMSO, MBX-4992, or heparin. Virus infection was quantified at 24 hpi by GFP fluorescence. Percent infection was normalized to untreated cells. Statistical tests were performed using ordinary one-way ANOVA with multiple comparisons to DMSO treated cells as a control and a Dunnett's post-test: *, p<0.05; ****, p<0.0001.
NHDF cells (10^4) plated overnight in a 96-well plate were pretreated with MBX-4992 (10 μM), heparin (50 μg/mL) or DMSO for 1 hour at 37° C. The plate was then placed at 4° C. for 5 minutes followed by the addition of AD169^R CMV virus for 30 minutes. 2/3rd of the samples were aspirated post binding. Half of those samples received DMSO media, regardless of the drug the cells were previously exposed to. The remaining wells received either MBX-4992 (10 μM) or Heparin (50 μg/mL) overnight. At 18 hpi, the cells were fixed with 4% paraformaldehyde, stained with a rabbit anti-IE1 antibody followed by an anti-rabbit Alexa 647, and analyzed using the Celigo cytometer. The DMSO condition that was not aspirated post binding was set as 100% infection.
We next examined whether pre-treating cells with MBX-4992 can limit virus infection. Cells were pre-treated with MBX-4992 or heparin for […] followed by the addition of AD169^R for 30 min at 4° C. The cells were either washed out or unchanged as indicated and replaced with media containing DMSO, MBX-4992, or heparin followed by incubation at 37° C. At 18 hpi, virus infection was evaluated using a Celigo cytometer.

Usually pIC50 stands for −log10 of the IC50, conventionally taken in molar units.

pIC50: −log10 of the molar value.

As for `C[C@@H]1C[C@@H]([C@H](O)CC2CC(=O)NC(=O)C2)C(=O)[C@@H](C)C1` [cycloheximide, reference compound], the cell number result in data set [1] was “dramatic decrease in cell number and luciferase activity”. In [2], the “luciferase signal (ATP levels)” value is “dramatic decrease in cell number and luciferase activity”.

Consider `Nc1nc(O)c2ncn(COC(CO)CO)c2n1` [ganciclovir, reference compound], for which the “IE1 expression by immunoblot” value in [3] is “did not impact infection”. For the same compound, the values for the pIC50 in data set [4], in data set [5] and in data set [6] were 6.05, 4.98 and 6.70, respectively. Also, the “reduction of plaque number” value in data set [7] was roughly 50%. Moreover, in data set [8], the “viral plaques >10,000 μm^2, single drug” value is “decreased”.

On to heparin [reference compound], for which the “decrease of infection after washing out” value in data set [9] is recorded as “positive control for inhibition”. In data set [10], the “virus infection, drug not removed or added back” value is recorded as “significantly inhibited virus infection”.
